Consider two compounds from US6585963B1, “Nail compositions and methods of administering same” (Watson Pharmaceuticals, Inc., priority 2001, dated 2003).

This series can be described thus: In vitro human cadaver nail flux study (modified Franz permeation cells). The class given is in vitro ADME. As for the experimental part:
The general methods for determining the in vitro nail flux are known in the art. See, for example, U.S. Pat. No. 5,696,164, and references cited therein.
In vitro human cadaver nail flux studies were conducted using modified Franz non-Jacketed permeation cells. The temperature of the nail surface was maintained at 32° C. by placing the cells in a circulating water bath positioned over a stirring module. Human fingernails or toenails were stored under frozen conditions in 0.02% (w/v) sodium azide solution or selected receiver medium. Nails that were greater than 1 cm^2 in area were used for the flux studies. Nails with dorsal side facing the donor compartment were sandwiched between two layers of a closed cell polyethylene foam film. Annular ring of 2.38 cm outer diameter and […] was cut from the backinig film. The area of the donut hole (0.97 cm^2) is large enough to provide complete contact with the receiver media. The purpose of the foam backing film was to prevent any leakage of receiver medium from the cell assembly. The nails were allowed to hydrate at 32° C. overnight with 0.02% (w/v) sodium azide solution in the receiver compartment.
The following morning, nail lacquer sufficient to cover the nail surface was placed onto the dorsal side of the nail. Alternatively, a fixed amount of the lacquer can also be used. Each nail was then loaded between the donor and receiver compartments of a diffusion cell, with the ventral side of nail facing the receiver compartment, and clamped in place. The duration of nail flux and retention study varied from 3 days to 3 weeks. At predetermined sampling intervals, the entire contents of the receiver compartment were collected for drug quantitation and the receiver compartment was filled with fresh receiver solution, taking care to eliminate any air bubbles at the skin/solution interface.
The cumulative amount of drug permeated per unit area at any time t (Qt, μg/cm^2) was determined as follows: [formula] […]

The structures appear in SMILES notation.

For the compound `CCCCCCCCCCCC(=O)N(CCO)CCO` [L-DEA, Lauramide Diethanolamine (DEA)], the “increase in flux rate” value (Examples II and III, 5% enhancer in Gantrez ES-335/FLC versus formulation without enhancer) is given as “about 40%”.
Turning to `OC(Cn1cncn1)(Cn1cncn1)c1ccc(F)cc1F` [fluconazole, Fluconazole], under “Example I, using 3-5% triacetin versus formulation without enhancer”, the “enhancement of nail flux of fluconazole” value was “about 100%”. The “increase in flux rate of fluconazole by pretreatment” value (Example V, pretreatment with an N-methyl-pyrrolidone composition versus control solution) is listed as “about 70%”.
